Test results as given in paper PMC5376172, “Identification and use of an alkane transporter plug-in for applications in biocatalysis and whole-cell biosensing of alkanes” (Scientific Reports, 2014).

Experiments:
AlkL = target: T1, AlkL (Ectopseudomonas oleovorans, UniProt Q00595); experiment: whole-cell alkane uptake by GC and coupled AlkB oxidation, with and without alkL; type: cell-based; details: transport into E. coli; 15 min incubation for direct uptake; whole cells
T1 construct: full-length, untagged, from pSTBFGL (palkB promoter) in E. coli DH1 / HB101 with AlkBFGT
T1 sequence (Q00595 28-230): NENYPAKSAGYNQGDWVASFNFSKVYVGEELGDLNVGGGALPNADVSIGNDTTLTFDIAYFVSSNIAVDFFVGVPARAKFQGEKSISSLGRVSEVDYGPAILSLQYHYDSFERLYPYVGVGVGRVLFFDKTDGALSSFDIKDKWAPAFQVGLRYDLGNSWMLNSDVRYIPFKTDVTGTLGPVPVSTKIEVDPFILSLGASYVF

[1] = target: T2, alkane hydroxylase complex (AlkB, AlkG, AlkT) (Ectopseudomonas oleovorans, UniProt P12691); experiment: whole-cell bio-oxidation, GC-FID of products; type: cell-based; details: E. coli DH1 / HB101 whole cells; DCPK inducer
T2 construct: integral membrane AlkB with electron transfer partners, co-expressed from pSTBFG(L) in whole E. coli cells; alkF also on plasmid; with Rubredoxin-2; Rubredoxin-NAD(+) reductase
T2 sequence (P12691 1-401): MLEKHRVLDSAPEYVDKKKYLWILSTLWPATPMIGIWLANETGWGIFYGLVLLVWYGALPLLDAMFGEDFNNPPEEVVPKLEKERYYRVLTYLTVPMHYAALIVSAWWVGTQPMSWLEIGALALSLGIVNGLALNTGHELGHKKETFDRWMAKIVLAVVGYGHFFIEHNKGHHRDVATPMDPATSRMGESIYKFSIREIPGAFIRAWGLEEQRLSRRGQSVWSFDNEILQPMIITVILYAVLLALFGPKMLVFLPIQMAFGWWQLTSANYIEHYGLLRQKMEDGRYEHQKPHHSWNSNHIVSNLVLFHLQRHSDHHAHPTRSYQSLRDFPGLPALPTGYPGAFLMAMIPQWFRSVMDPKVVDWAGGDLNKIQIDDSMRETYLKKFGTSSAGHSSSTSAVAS
T2 sequence (P00272 2-173 partner): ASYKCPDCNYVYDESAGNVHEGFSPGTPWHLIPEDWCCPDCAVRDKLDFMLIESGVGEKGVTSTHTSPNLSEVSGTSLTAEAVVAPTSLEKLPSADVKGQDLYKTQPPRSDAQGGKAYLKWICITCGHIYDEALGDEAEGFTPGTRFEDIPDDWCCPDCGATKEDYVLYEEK

Compound	whole-cell alkane uptake by GC and coupled AlkB oxidation, with and without alkL (AlkL)	whole-cell bio-oxidation, GC-FID of products [1]
CCCCCCCCCCCC [n-dodecane]	E.coli strains expressing alkL were also tested for a direct measurement of n-dodecane uptake	–
CCCCCCCC [n-octane]	–	Oxidised products of n-octane were detected in all host cells containing either pSTBFG or pSTBFGL
